# According to patent US8471005B2 (Cephalon, Inc., priority 2008, dated 2013):
# Like-named read-outs stand apart in the source and are kept apart here.
# Tests used:
# ALK = biological target: T1, ALK (Homo sapiens, UniProt Q9UM73); test: ALK Kinase Assay (ELISA/TRF, PLC-γ substrate); assay type: biochemical; settings: read-out: ALK Potency
# T1 construct: host or cells: baculovirus expression system
# Outline: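 PLC-γ substrate coated at 10 μg/mL in TBS; reaction started with 30 ng/ml ALK, run 15 min at 37° C. Phosphoproduct detected by TRF with Eu-N1-labeled PT66 anti-phosphotyrosine antibody. IC50 from sigmoidal variable-slope fit of percent inhibition versus log concentration.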
# JAK2 = biological target: T2, JAK2 (Homo sapiens, UniProt O60674); test: Recombinant Human JAK2 Kinase Assay (TRF); assay type: biochemical; settings: read-out: JAK2 Potency
# T2 construct: host or cells: baculovirus expression system
# T2 sequence (O60674 whole entry): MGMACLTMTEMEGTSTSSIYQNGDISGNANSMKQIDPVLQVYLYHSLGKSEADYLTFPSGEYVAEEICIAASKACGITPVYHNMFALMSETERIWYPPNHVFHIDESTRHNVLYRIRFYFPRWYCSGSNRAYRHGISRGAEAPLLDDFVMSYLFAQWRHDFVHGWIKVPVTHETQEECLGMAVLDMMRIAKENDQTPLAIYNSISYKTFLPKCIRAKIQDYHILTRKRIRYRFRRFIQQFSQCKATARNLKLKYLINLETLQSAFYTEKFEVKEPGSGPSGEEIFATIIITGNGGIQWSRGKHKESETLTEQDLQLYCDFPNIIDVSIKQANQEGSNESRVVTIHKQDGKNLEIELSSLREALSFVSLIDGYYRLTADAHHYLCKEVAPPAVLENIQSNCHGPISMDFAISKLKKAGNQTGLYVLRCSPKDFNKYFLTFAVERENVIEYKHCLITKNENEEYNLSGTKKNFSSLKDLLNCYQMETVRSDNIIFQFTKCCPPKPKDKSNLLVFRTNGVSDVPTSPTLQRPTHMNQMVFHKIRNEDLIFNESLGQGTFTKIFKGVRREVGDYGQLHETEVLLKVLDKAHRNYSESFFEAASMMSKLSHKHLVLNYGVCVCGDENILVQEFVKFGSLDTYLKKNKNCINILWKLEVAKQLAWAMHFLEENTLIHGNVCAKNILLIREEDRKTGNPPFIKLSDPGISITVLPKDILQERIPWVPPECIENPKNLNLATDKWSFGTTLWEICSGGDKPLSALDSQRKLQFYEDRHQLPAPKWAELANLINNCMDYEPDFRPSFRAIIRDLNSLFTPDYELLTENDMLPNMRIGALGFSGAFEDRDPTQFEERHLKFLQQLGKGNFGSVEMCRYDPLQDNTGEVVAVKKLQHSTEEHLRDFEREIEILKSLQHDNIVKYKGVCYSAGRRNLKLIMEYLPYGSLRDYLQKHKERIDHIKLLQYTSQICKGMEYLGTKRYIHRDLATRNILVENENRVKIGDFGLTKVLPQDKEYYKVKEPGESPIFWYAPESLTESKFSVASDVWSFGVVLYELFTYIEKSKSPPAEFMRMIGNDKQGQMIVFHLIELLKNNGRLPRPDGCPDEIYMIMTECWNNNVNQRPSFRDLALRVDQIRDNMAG
# Outline: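 Baculovirus-expressed JAK2 (15 ng/ml) phosphorylated a biotinylated 15-mer peptide captured on Neutravidin, in 20 mM HEPES pH 7.2, 0.2 μM ATP, 1 mM MnCl2, 0.1% BSA, 2.5% DMSO final, 20 min at room temperature. Phosphoproduct detected by time-resolved fluorescence with Eu-N1-labelled PY100 antibody.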
# [1] = ALK kinase inhibition, 1 μM ATP
# [2] = JAK2 kinase inhibition, 0.2 μM ATP
# T1 sequence (Q9UM73 19-1620): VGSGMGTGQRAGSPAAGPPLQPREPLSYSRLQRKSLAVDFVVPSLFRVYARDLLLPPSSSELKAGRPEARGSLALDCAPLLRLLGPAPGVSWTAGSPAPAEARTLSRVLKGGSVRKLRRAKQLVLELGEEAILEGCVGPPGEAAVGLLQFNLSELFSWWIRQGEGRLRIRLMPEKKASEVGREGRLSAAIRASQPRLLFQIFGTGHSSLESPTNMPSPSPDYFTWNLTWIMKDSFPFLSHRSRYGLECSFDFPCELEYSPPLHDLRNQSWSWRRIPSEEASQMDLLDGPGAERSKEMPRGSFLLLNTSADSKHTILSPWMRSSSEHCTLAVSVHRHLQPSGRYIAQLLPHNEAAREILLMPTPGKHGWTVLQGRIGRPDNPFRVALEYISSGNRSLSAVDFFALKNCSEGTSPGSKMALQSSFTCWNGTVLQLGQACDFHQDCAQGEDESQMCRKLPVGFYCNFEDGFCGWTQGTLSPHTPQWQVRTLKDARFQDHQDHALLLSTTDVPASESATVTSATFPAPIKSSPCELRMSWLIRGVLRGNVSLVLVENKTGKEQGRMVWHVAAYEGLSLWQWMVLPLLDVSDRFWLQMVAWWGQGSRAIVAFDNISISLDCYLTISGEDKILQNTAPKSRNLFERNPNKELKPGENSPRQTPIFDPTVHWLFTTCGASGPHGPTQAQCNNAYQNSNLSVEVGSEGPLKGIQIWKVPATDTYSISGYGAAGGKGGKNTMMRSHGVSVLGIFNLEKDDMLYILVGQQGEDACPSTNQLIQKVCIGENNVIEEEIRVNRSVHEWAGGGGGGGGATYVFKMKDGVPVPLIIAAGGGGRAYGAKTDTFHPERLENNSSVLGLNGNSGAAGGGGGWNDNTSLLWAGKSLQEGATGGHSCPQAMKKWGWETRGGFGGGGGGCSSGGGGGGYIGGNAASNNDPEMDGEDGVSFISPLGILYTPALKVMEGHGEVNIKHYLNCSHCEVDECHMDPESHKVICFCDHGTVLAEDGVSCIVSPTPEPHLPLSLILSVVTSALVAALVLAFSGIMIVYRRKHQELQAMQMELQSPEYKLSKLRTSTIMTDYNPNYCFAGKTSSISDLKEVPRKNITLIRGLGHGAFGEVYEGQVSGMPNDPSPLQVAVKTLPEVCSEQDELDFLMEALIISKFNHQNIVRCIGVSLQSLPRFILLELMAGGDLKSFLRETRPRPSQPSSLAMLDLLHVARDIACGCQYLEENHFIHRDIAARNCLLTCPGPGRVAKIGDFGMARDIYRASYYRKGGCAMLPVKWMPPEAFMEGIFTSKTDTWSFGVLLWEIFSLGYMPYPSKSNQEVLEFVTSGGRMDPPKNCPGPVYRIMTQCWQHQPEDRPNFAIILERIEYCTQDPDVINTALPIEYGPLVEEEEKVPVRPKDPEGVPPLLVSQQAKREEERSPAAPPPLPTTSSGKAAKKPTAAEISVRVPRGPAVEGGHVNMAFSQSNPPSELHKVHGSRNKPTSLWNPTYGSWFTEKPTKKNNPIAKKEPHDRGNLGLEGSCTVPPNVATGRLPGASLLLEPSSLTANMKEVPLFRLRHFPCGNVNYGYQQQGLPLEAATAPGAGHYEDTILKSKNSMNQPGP
IC50 (ALK; ALK Kinase Inhibition) [nM],IC50 (JAK2; JAK2 Kinase Inhibition) [nM],IC50 (ALK; [1]) [nM],IC50 (JAK2; [2]) [nM],Structure (SMILES)
–,–,1000 to 10000,< 100,"Cn1cnc(-c2ccc3cnc(Nc4ccc(N5CCOCC5)cc4)nn23)c1 [Example 1045, [7-(1-Methyl-1H-imidazol-4-yl)-pyrrolo[2,1-f][1,2,4]triazin-2-yl]-(4-morpholin-4-yl-phenyl)-amine]"
–,–,100 to 1000,< 100,"CN1CCN(c2ccc(Nc3ncc4ccc(-c5cnn(C)c5)n4n3)cc2F)CC1 [Example 1215, [3-Fluoro-4-(4-methyl-piperazin-1-yl)-phenyl]-[7-(1-methyl-1H-pyrazol-4-yl)-pyrrolo[2,1-f][1,2,4]triazin-2-yl]-amine]"
–,–,< 100,100 to 1000,"COc1cc(C2CCN(CC(C)(C)O)CC2)ccc1Nc1ncc2ccc(-c3ccccc3OC)n2n1 [Example 865, 1-(4-{3-Methoxy-4-[7-(2-methoxy-phenyl)-pyrrolo[2,1-f][1,2,4]triazin-2-ylamino]-phenyl}-piperidin-1-yl)-2-methyl-propan-2-ol]"
100 to 1000,< 100,–,–,"CC(C)(C)NS(=O)(=O)c1cccc(-c2ccc3cnc(Nc4ccc(F)c(N5CCOCC5)c4)nn23)c1 [Example 1394, N-tert-Butyl-3-[2-(4-fluoro-3-morpholin-4-yl-phenylamino)-pyrrolo[2,1-f][1,2,4]triazin-7-yl]-benzenesulfonamide]"
–,–,100 to 1000,< 100,"COc1ccc(-c2ccc3cnc(Nc4ccc5c(c4)CCN(C)C5)nn23)cn1 [Example 919, [7-(6-Methoxy-pyridin-3-yl)-pyrrolo[2,1-f][1,2,4]triazin-2-yl]-(2-methyl-1,2,3,4-tetrahydro-isoquinolin-6-yl)-amine]"
–,–,100 to 1000,< 100,"COc1ccccc1-c1ccc2cnc(Nc3ccc4c(c3)CCN(CC(N)=O)C4)nn12 [Example 917, 2-{6-[7-(2-Methoxy-phenyl)-pyrrolo[2,1-f][1,2,4]triazin-2-ylamino]-3,4-dihydro-1H-isoquinolin-2-yl}-acetamide]"
–,–,> 10000,< 100,"COc1ccc(-c2ccc3cnc(Nc4ccn(CC(=O)N5CCOCC5)n4)nn23)cn1 [Example 1112, 2-{3-[7-(6-Methoxy-pyridin-3-yl)-pyrrolo[2,1-f][1,2,4]triazin-2-ylamino]-pyrazol-1-yl}-1-morpholin-4-yl-ethanone]"
–,–,1000 to 10000,< 100,"Cc1ccncc1-c1ccc2cnc(Nc3ccc(N4CCOCC4)cc3)nn12 [Example 1038, [7-(4-Methyl-pyridin-3-yl)-pyrrolo[2,1-f][1,2,4]triazin-2-yl]-(4-morpholin-4-yl-phenyl)-amine]"
100 to 1000,< 100,–,–,"CN(c1ccccc1-c1ccc2cnc(Nc3ccc4nc(CN5CCN(CCO)CC5)[nH]c4c3)nn12)S(C)(=O)=O [Example 1521, N-[2-(2-{2-[4-(2-Hydroxy-ethyl)-piperazin-1-ylmethyl]-3H-benzimidazol-5-ylamino}-pyrrolo[2,1-f][1,2,4]triazin-7-yl)-phenyl]-N-methyl-methanesulfonamide]"
–,–,100 to 1000,< 100,"COc1ccccc1-c1ccc2cnc(Nc3ccc4nc(C(C)(C)C)[nH]c4c3)nn12 [Example 1352, (2-tert-Butyl-3H-benzimidazol-5-yl)-[7-(2-methoxy-phenyl)-pyrrolo[2,1-f][1,2,4]triazin-2-yl]-amine]"

# Second part, the compound before the results:
Structure (SMILES),IC50 (ALK; ALK Kinase Inhibition) [nM],IC50 (JAK2; JAK2 Kinase Inhibition) [nM],IC50 (ALK; [1]) [nM],IC50 (JAK2; [2]) [nM]
"COc1ccccc1-c1ccc2cnc(Nc3cc[nH]n3)nn12 [Example 122, [7-(2-Methoxy-phenyl)-pyrrolo[2,1-f][1,2,4]triazin-2-yl]-(1H-pyrazol-3-yl)-amine]",100 to 1000,< 100,–,–
"Cc1ccc(S(=O)(=O)N(C)C)cc1-c1ccc2cnc(Nc3ccc(N4CCN(C)CC4)cc3)nn12 [Example 74, 4,N,N-Trimethyl-3-{2-[4-(4-methyl-piperazin-1-yl)-phenylamino]-pyrrolo[2,1-f][1,2,4]triazin-7-yl}-benzenesulfonamide]",100 to 1000,< 100,–,–
"CN1CCN(c2ccc(Nc3ncc4c(Br)cc(-c5ccccc5)n4n3)cc2)CC1 [Example 100, (5-Bromo-7-phenyl-pyrrolo[2,1-f][1,2,4]triazin-2-yl)-[4-(4-methyl-piperazin-1-yl)-phenyl]-amine]",100 to 1000,< 100,–,–
"CS(=O)(=O)Nc1cccc(-c2ccc3cnc(Nc4ccc(N5CCOCC5)cc4F)nn23)c1 [Example 371, N-{3-[2-(2-Fluoro-4-morpholin-4-yl-phenylamino)-pyrrolo[2,1-f][1,2,4]triazin-7-yl]-phenyl}-methanesulfonamide]",1000 to 10000,< 100,–,–
"CN1CCN(C(=O)C2CCN(c3ccc(Nc4ncc5ccc(-c6ccc(Cl)cc6O)n5n4)cc3)CC2)CC1 [Example 485, (1-{4-[7-(4-Chloro-2-hydroxy-phenyl)-pyrrolo[2,1-f][1,2,4]triazin-2-ylamino]-phenyl}-piperidin-4-yl)-(4-methyl-piperazin-1-yl)-methanone]",–,–,100 to 1000,< 100
"COc1ccccc1-c1ccc2cnc(Nc3ccc(N4CCOCC4)c(F)c3)nn12 [Example 186, (3-Fluoro-4-morpholin-4-yl-phenyl)-[7-(2-methoxy-phenyl)-pyrrolo[2,1-f][1,2,4]triazin-2-yl]-amine]",100 to 1000,< 100,–,–
"COc1ccccc1-c1c(Br)c(Br)c2cnc(Nc3ccc(N4CCOCC4)cc3)nn12 [Example 110, [5,6-Dibromo-7-(2-methoxy-phenyl)-pyrrolo[2,1-f][1,2,4]triazin-2-yl]-(4-morpholin-4-yl-phenyl)-amine]",> 10000,< 100,–,–
"CN1CCN(c2ccc(Nc3ncc4ccc(CNc5ccccc5)n4n3)cc2)CC1 [Example 363, [4-(4-Methyl-piperazin-1-yl)-phenyl]-(7-phenylaminomethyl-pyrrolo[2,1-f][1,2,4]triazin-2-yl)-amine]",1000 to 10000,< 100,–,–
"CN1CCN(c2ccc(Nc3ncc4ccc(Nc5ccccc5)n4n3)cc2)CC1 [Example 24, N(2)-[4-(4-Methyl-piperazin-1-yl)-phenyl]-N(7)-phenyl-pyrrolo[2,1-f][1,2,4]triazine-2,7-diamine]",1000 to 10000,< 100,–,–
"COc1ccc(-c2ccc3cnc(Nc4ccc(C5CCN(CC(N)=O)CC5)cc4OC)nn23)c(OC)c1 [Example 745, 2-(4-{4-[7-(2,4-Dimethoxy-phenyl)-pyrrolo[2,1-f][1,2,4]triazin-2-ylamino]-3-methoxy-phenyl}-piperidin-1-yl)-acetamide]",–,–,< 100,1000 to 10000
"Cc1cc(Nc2ncc3ccc(-c4cccc(Cl)c4)n3n2)ccc1N1CCN(C)CC1 [Example 69, [7-(3-Chloro-phenyl)-pyrrolo[2,1-f][1,2,4]triazin-2-yl]-[3-methyl-4-(4-methyl-piperazin-1-yl)-phenyl]-amine]",< 100,< 100,–,–
"CS(=O)(=O)c1ccc(-c2ccc3cnc(Nc4ccc(N5CCN(CCO)CC5)cc4)nn23)cc1 [Example 88, 2-(4-{4-[7-(4-Methanesulfonyl-phenyl)-pyrrolo[2,1-f][1,2,4]triazin-2-ylamino]-phenyl}-piperazin-1-yl)-ethanol]",100 to 1000,< 100,–,–
"COc1cc(N2CCCN(C[C@H](O)CO)CC2)ccc1Nc1ncc2ccc(-c3ccccc3N(C)S(C)(=O)=O)n2n1 [Example 773, N-[2-(2-{4-[4-((S)-2,3-Dihydroxy-propyl)-[1,4]diazepan-1-yl]-2-methoxy-phenylamino}-pyrrolo[2,1-f][1,2,4]triazin-7-yl)-phenyl]-N-methyl-methanesulfonamide]",–,–,< 100,100 to 1000
